Assay results published in patent US11090304B2 (Amgen Inc., priority 2018, dated 2021).
Like-named read-outs stand apart in the source and are kept apart here.

Experiments:
[1] = system: Phosphorylation of ERK1/2 in A549 cells; assay: Phospho-ERK1/2 MSD assay in A549 cells; type: cell-based
Experimental: For compounds in Table 89, the following assay conditions were employed:
Phospho-ERK1/2 MSD Assay:
Sixteen hours prior to compound treatment, MIA PaCa-2 or A549 cells were seeded in 96-well cell culture plates at a density of 25,000 cells/well and incubated at 37° C., 5% CO2. A compound dose-response titration was diluted in growth media, added to appropriate wells of a cell culture plate, and then incubated at 37° C., 5% CO2 for 2 or 4 hours (see Table 15). Following compound treatment, cells were stimulated with 10 ng/mL EGF (Roche 11376454001) for 10 min, washed with ice-cold Dulbecco's phosphate-buffered saline, no Ca^2+ or Mg^2+ (ThermoFisher Scientific 14190144), and then lysed in RIPA buffer (50 mM Tris-HCl pH 7.5, 1% Igepal, 0.5% sodium deoxycholate, 150 mM NaCl, and 0.5% sodium dodecyl sulfate) containing protease inhibitors (Roche 4693132001) and phosphatase inhibitors (Roche 4906837001). Phosphorylation of ERK1/2 in compound-treated lysates was assayed using Phospho-ERK1/2 Whole Cell Lysate kits (Meso Scale Discovery K151DWD) according to the manufacturer's protocol. Assay plates were read on a Meso Scale Discovery Sector Imager 6000, and data were analyzed using a 4-parameter logistic model to calculate IC50 values.

[2] = system: Phosphorylation of ERK1/2 in MIA PaCa-2 cells; assay: Phospho-ERK1/2 MSD assay in MIA PaCa-2 cells; type: cell-based
Procedure, shortened: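 MSD electrochemiluminescence readout of phospho-ERK1/2 in whole-cell lysates, IC50 by 4-parameter logistic fit. Compound titrations were applied for 2 or 4 h at 37 °C, 5% CO2, followed by 10 ng/mL EGF stimulation for 10 min before lysis.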

[3] = target: GDP-bound KRAS protein (aa 1-169), containing both G12C and C118A amino acid substitutions (Homo sapiens, UniProt P01116, C118A/G12C); assay: Coupled nucleotide exchange assay (SOS-mediated, AlphaScreen); type: biochemical; settings: 5 min compound pre-incubation
GDP-bound KRAS protein (aa 1-169), containing both G12C and C118A amino acid substitutions, sequence (P01116 1-169 isoform P01116-2 G12C/C118A): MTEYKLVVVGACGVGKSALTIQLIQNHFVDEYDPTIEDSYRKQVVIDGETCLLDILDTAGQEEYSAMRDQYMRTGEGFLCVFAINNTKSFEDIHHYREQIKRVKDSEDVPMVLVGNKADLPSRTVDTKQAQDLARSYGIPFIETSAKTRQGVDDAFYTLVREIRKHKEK

[4] = Homo sapiens, A549, 4 h, read-out: p-ERK IC50 (4 h; A549), 4 h compound treatment
[5] = Homo sapiens, MIA PaCa-2, 4 h, read-out: p-ERK IC50 (4 h; MIA PaCa-2), 4 h compound treatment
[6] = Homo sapiens, MIA PaCa-2, 2 h, read-out: p-ERK IC50 (2 h; MIA PaCa-2), 2 h compound treatment
[7] = Homo sapiens, A549, 2 h, read-out: p-ERK IC50 (2 h; A549), 2 h compound treatment
[8] = read-out: p-ERK IC50 (2 h; MIA PaCa-2), 2 h compound treatment

IC50 [2, 6] [nM]	Coupled exchange IC50 (5 min) [3]	SMILES	also measured
–	–	C=CC(=O)N1CCN(c2nc(=O)n(C(C(C)C)C(C)C)c3nc(Cl)c(Cl)cc23)CC1 [Example 60-35, 6,7-dichloro-1-(2,4-dimethyl-3-pentanyl)-4-(4-(2-propenoyl)-1-piperazinyl)pyrido[2,3-d]pyrimidin-2(1H)-one]	IC50 [1, 4]: 46200 nM; IC50 [2, 5]: 10700 nM
–	–	C=CC(=O)N1CCN(c2nc(=O)n(-c3ccccc3C(C)C)c3cc(Br)c(Cl)cc23)[C@@H](C)C1 [Example 9-17]	IC50 [1, 4]: 74400 nM; IC50 [2, 5]: 1110 nM
–	–	C=CC(=O)N1CCN(c2nc(=O)n(-c3ccccc3C(C)C)c3cc(Br)c(Cl)cc23)[C@@H](C)C1 (single isomer, unassigned) [Example 9-17-1]	IC50 ([1]; read-out: p-ERK IC50 (4 h; A549), 4 h compound treatment): 75800 nM; IC50 ([2]; read-out: p-ERK IC50 (4 h; MIA PaCa-2), 4 h compound treatment): 2180 nM
232	–	C=CC(=O)N1CCN(c2nc(=O)n(-c3ccccc3C(C)C)c3cc(-c4ccccc4F)c(Cl)cc23)CC1 [Example 88, 6-Chloro-7-(2-fluorophenyl)-1-(2-(2-propanyl)phenyl)-4-(4-(2-propenoyl)-1-piperazinyl)-2(1H)-quinazolinone]	IC50 [1, 4]: 89400 nM; IC50 [2, 5]: 243 nM
160	–	C=CC(=O)N1CCN(c2nc(=O)n(-c3ccccc3C(C)C)c3nc(-c4ccc(F)cc4F)c(Cl)cc23)[C@@H](C)C1 [Example 54-85, 6-chloro-7-(2,4-difluorophenyl)-4-((2S)-2-methyl-4-(2-propenoyl)-1-piperazinyl)-1-(2-(2-propanyl)phenyl)pyrido [2,3-d]pyrimidin-2(1H)-one]	IC50 [1, 7]: ≥ 100000 nM
–	–	C=CC(=O)N1CCN(c2nc(=O)n(-c3ccccc3C(C)C)c3nc(-c4ccccc4Cl)c(Cl)cc23)[C@@H](C)C1 (single isomer, unassigned) [Example 54-84-1]	IC50 [1, 7]: ≥ 100000 nM; IC50 [2, 8]: 744 nM
–	–	C=CC(=O)N1CCN(c2nc(=O)n(-c3ccccc3C(C)C)c3cc(-c4ccccc4F)c(Cl)cc23)CC1 (single isomer, unassigned) [Example 88-1, 6-chloro-7-(2-fluorophenyl)-1-(2-(2-propanyl)phenyl)-4-(4-(2-propenoyl)-1-piperazinyl)-2(1H)-quinazolinone]	IC50 [1, 7]: ≥ 10000 nM
–	–	C=CC(=O)N1CCN(c2nc(=O)n(-c3ccccc3C(C)C)c3nc(-c4ccccc4F)c(Cl)cc23)[C@@H](C)C1 (single isomer, unassigned) [Example 54-86-1]	IC50 [1, 7]: ≥ 10000 nM; IC50 [2, 8]: 670 nM
–	–	C=CC(=O)N1CCN(c2nc(=O)n(-c3ccccc3C(C)C)c3nc(-c4c(O)cccc4F)c(Cl)cc23)CC1 (single isomer, unassigned) [Example 60-24-1, (M)-6-chloro-7-(2-fluoro-6-hydroxyphenyl)-1-(2-(2-propanyl)phenyl)-4-(4-(2-propenoyl)-1-piperazinyl)pyrido[2,3-d]pyrimidin-2(1H)-one]	IC50 [1, 7]: ≥ 100000 nM
226	0.124 | nda μM	C=CC(=O)N1CCN(c2nc(=O)n(-c3c(C)noc3C(C)C)c3nc(-c4c(O)cccc4F)c(Cl)cc23)[C@@H](C)C1 [Example 55-1, 6-Chloro-7-(2-fluoro-6-hydroxyphenyl)-1-(3-methyl-5-(2-propanyl)-1,2-oxazol-4-yl)-4-((2S)-2-methyl-4-(2-propenoyl)-1-piperazinyl)pyrido[2,3-d]pyrimidin-2(1H)-one]	–
47	0.073 | nda μM	C=CC(=O)N1CCN(c2nc(=O)n(-c3c(C(C)C)ncnc3N(C)C)c3nc(-c4ccccc4F)c(Cl)cc23)[C@@H](C)C1 (single isomer, unassigned) [Example 140-1]	–
–	0.181 | nda μM	C=CC(=O)N1CCN(c2nc(=O)n(-c3ccccc3C(C)C)c3nc(-c4cc(O)cc(Cl)c4Cl)c(Cl)cc23)[C@@H](C)C1 (single isomer, unassigned) [Example 54-91-2]	IC50 [2, 8]: 509 nM
204	0.422 | nda μM	C=CC(=O)N1CCN(c2nc(=O)n(-c3ncccc3C3CC3)c3nc(-c4ccccc4F)c(Cl)cc23)[C@@H](C)C1 [Example 60-1, 6-Chloro-1-(3-cyclopropyl-2-pyridinyl)-7-(2-fluorophenyl)-4-((2S)-2-methyl-4-(2-propenoyl)-1-piperazinyl)pyrido[2,3-d]pyrimidin-2(1H)-one]	–
178	0.099 | nda μM	C=CC(=O)N1CCN(c2nc(=O)n(-c3c(CC)cccc3CC)c3cc(-c4ccccc4F)c(Cl)cc23)[C@@H](C)C1 [Example 103, 6-Chloro-1-(2,6-diethylphenyl)-7-(2-fluorophenyl)-4-((2S)-2-methyl-4-(2-propenoyl)-1-piperazinyl)-2(1H)-quinazolinone]	–
80	0.057 | nda μM	C=CC(=O)N1CCN(c2nc(=O)n(-c3c(C)nc(C)nc3C(C)C)c3nc(-c4c(O)cccc4F)c(Cl)cc23)[C@@H](C)C1 [Example 55-4, 6-chloro-1-(2,4-dimethyl-6-(2-propanyl)-5-pyrimidinyl)-7-(2-fluoro-6-hydroxyphenyl)-4-((2S)-2-methyl-4-(2-propenoyl)-1-piperazinyl)pyrido[2,3-d]pyrimidin-2(1H)-one]	–
40	0.031 | nda μM	C=CC(=O)N1CCN(c2nc(=O)n(-c3c(C)ccnc3C(C)C)c3nc(-c4cc(C)ccc4F)c(Cl)cc23)[C@@H](C)C1 (atropisomer, axis not shown; (M)) [Example 73-3, (M)-6-chloro-7-(2-fluoro-5-methylphenyl)-1-(4-methyl-2-(2-propanyl)-3-pyridinyl)-4-((2S)-2-methyl-4-(2-propenoyl)-1-piperazinyl)pyrido[2,3-d]pyrimidin-2(1H)-one]	–
–	0.044 | nda μM	C=CC(=O)N1CCN(c2nc(=O)n(-c3ccccc3C3(C)CC3)c3nc(-c4c(O)cccc4F)c(Cl)cc23)[C@@H](C)C1 (single isomer, unassigned) [Example 54-97-2]	IC50 [2, 8]: 141 nM
93	0.073 | nda μM	C=CC(=O)N1CCN(c2nc(=O)n(-c3cccnc3C(C)(C)C)c3nc(-c4c(O)cccc4F)c(Cl)cc23)[C@@H](C)C1 (single isomer, unassigned) [Example 54-103-1]	–
607	0.31 | nda μM	C=CC(=O)N1CCN(c2nc(=O)n(-c3c(C)cccc3C(C)C)c3nc(-c4c(C)ccc5[nH]ncc45)c(F)cc23)[C@@H](C)C1 (single isomer, unassigned) [Example 68-2-2]	–
156	0.123 | nda μM	C=CC(=O)N1CCN(c2nc(=O)n(-c3c(C)ccnc3CC)c3nc(-c4c(O)cccc4F)c(Cl)cc23)[C@@H](C)C1 [Example 55-10, 6-chloro-1-(2-ethyl-4-methyl-3-pyridinyl)-7-(2-fluoro-6-hydroxyphenyl)-4-((2S)-2-methyl-4-(2-propenoyl)-1-piperazinyl)pyrido[2,3-d]pyrimidin-2(1H)-one]	–
52	0.08 | nda μM	C=CC(=O)N1CCN(c2nc(=O)n(-c3c(C)cc(CN(C)C)cc3C(C)C)c3nc(-c4ccccc4F)c(Cl)cc23)[C@@H](C)C1 [Example 80-1, 6-Chloro-1-(4-((dimethylamino)methyl)-2-methyl-6-(2-propanyl)phenyl)-7-(2-fluorophenyl)-4-((2S)-2-methyl-4-(2-propenoyl)-1-piperazinyl)pyrido[2,3-d]pyrimidin-2(1H)-one]	–
–	–	C=CC(=O)N1CCN(c2nc(=O)n(-c3ccccc3C(C)C)c3cc(-c4ccccc4C(F)(F)F)c(Cl)cc23)[C@@H](C)C1 [Example 62-2, 6-chloro-4-((2S)-2-methyl-4-(2-propenoyl)-1-piperazinyl)-1-(2-(2-propanyl)phenyl)-7-(2-(trifluoromethyl)phenyl)-2(1H)-quinazolinone]	IC50 [1, 7]: ≥ 10000 nM
31	0.045 | nda μM	C=CC(=O)N1CCN(c2nc(=O)n(-c3c(C(C)C)nc(C)nc3C(C)C)c3nc(-c4ccccc4F)c(Cl)cc23)[C@@H](C)C1 [Example 55-5, 6-chloro-7-(2-fluorophenyl)-1-(2-methyl-4,6-di(2-propanyl)-5-pyrimidinyl)-4-((2S)-2-methyl-4-(2-propenoyl)-1-piperazinyl)pyrido[2,3-d]pyrimidin-2(1H)-one]	–
525	0.226 | nda μM	C=CC(=O)N1CCN(c2nc(=O)n(-c3c(C4CC4)ccnc3C)c3nc(-c4c(O)cccc4F)c(F)cc23)[C@@H](C)C1 (single isomer, unassigned) [Example 58-19-2]	–
